# Assay results from patent publication US11478011B2, “Nutritional compositions and infant formula for promoting de novo myealination” (NESTEC S.A., priority 2015, dated 2022).
# Test system: Neural Progenitor Cell (NPCs) from E14 mouse neocortex
# Experiment: Monolayer culture NPC proliferation assay
# Format: cell-based
# Details: low dose (Dose 1: 10 nM); 3 days; control 262
# Description: (§1) Media Compositions and Culture Methods 1) Neurobasal Complete Media Neurobasal media (LIFE TECHNOLOGIES CORP, #21103-049) 50× B27 supplement (LIFE TECHNOLOGIES CORP, #12587-010) 2 mM L-Glutamine (LIFE TECHNOLOGIES CORP, #25030-149) 1× Pen-Strep (LIFE TECHNOLOGIES CORP, #15140-122) 2) Neurobasal Media Complete with Growth Factors (GF) Above recipe with GF mix 1M Tris (MW 121.14, Fisher SCI BP152) Heparin (sigma H3149) BSA (Sigma A7030) DNAse, RNase, Protease free water (Fisher SCI AC327390010) EGF (GIBCO PHG0311) bFGF vial (GIBCO PHG0021) 3) Neurobasal Media No Choline (Life Technologies, Formulated Custom, No L-Glutamine, no phenol red) Note: complete and complete with GF made the same as above. Generation of Neural Progenitor Cell (NPCs) Libraries: dissociation of E14 mouse neocortex Reagents Needed: DPBS (1×)+10% Pen/Strep Neurobasal media/10% Pen/Strep/10× Hepes Procedure:
# E14 pup brains were harvested and placed in ice cold DPBS (1×)+10% Pen/Strep, then they were dissected using a dissecting microscope. From each pup, one brain hemisphere was placed in 2 ml of Neurobasal media/10% P/S/10× Hepes and another brain hemisphere was placed in another tube. […]
# EDU incorporation was measured using Click-iT® EdU Alexa Fluor® 555 Imaging Kit (Life technologies, #c10338). […]
row,Compound,"neuronal proliferation, DAPI"
1,Sphingomyelin,280

# Test system: Neural Progenitor Cell (NPCs) from E14 mouse neocortex
# Experiment: Neurosphere counts in 96-well plates
# Format: cell-based
# Details: Low dose (Dose 1: 10 nM); grown for 2 days; control 103
# Description: as §1
# E14 pup brains were harvested and placed in ice cold DPBS (1×)+10% Pen/Strep, then they were dissected using a dissecting microscope. From each pup, one brain hemisphere was placed in 2 ml of Neurobasal media/10% P/S/10× Hepes and another brain hemisphere was placed in another tube.
# The tissue from each tube was aseptically and manually dissociate into single cells, neurobasal complete medium was added and centrifuged at 130 G for 5 min. […]
row,Compound,"number of neurospheres, Average (Mean)"
1,Sphingomyelin,94

# Test system: brain myelination (myelin water fraction) of children up to 5 years of age
# Experiment: Correlation analysis between infant formula nutrient composition and brain myelination (mcDESPOT MRI myelin water fraction)
# Format: in vivo, human
# Details: formula-fed children up to 5 years; brain regions listed in the block; FIG. 1b-1p
# Description: MRI (Magnetic Resonance Imaging): MRI brain scans of infants and children between 0 and 5 years were acquired using a white matter imaging technique. This technique provides a quantitative measure, the Myelin Water Fraction (MWF), which is a surrogate marker of myelin content in the brain. When mapped as a function of time across early childhood, myelination trajectories can be generated.
# Infant formula composition: six infant formulas fed to infants participating in a study were analyzed for their composition/level of myelin-relevant nutrients.
# Infants included in this study were drawn from a larger longitudinal study of normal brain and behavioral development: the Brown University Assessment of Myelination and Behavior Across Maturation (BAMBAM). To focus on neurotypical development, children with known potential risk factors for learning, neurologic, or psychiatric disorders were specifically excluded during recruitment and enrollment. Thus, children with in utero alcohol or illicit substance exposure, premature (<37 weeks gestation) or multiple birth, fetal ultrasound abnormalities, complicated pregnancy (e.g., preeclampsia), APGAR scores <8, NICU admission, neurological disorder (e.g., head injury, epilepsy), psychiatric or developmental disorders in the infant, parents or siblings (including maternal depression requiring medication) were excluded. Ongoing screenings, such as the MCAT for autism, or CBCL for behavioral problems, were further used to remove enrolled children with clinically concerning behaviors or overt medical conditions (such as autism spectrum disorders).
# A combination of retrospective and prospective data were acquired from parents via detailed medical histories and parental interview on the type of infant formula used, percentage of breastfeeding to formula feeding, and length of exclusive breastfeeding. This information was updated at each study visit, which occurred approximately every 6 months for children under 2 years, and yearly for older children. Using this information, children were categorized into one of 2 groups: #1. Exclusively formula-fed; and #2. Exclusively breastfed for at least 90 days (3 months). Children who were fed a combination of breastmilk and formula within 3 months were excluded from our analysis. Infants within the exclusively formula-fed group were further sub-divided based on parental reports of the main infant formula used throughout the first 3 months. Main formula was defined as that given 90% of the time or more (in the case were parents used an alternate brand during vacation, for example).
# Using these criteria, 94 exclusively formula-fed infants and young children were selected into group #1. These included 13 children who received formula #2; 28 who received formula #5; 8 who received formula #3; 39 who received formula #4; 5 who received formula #1 and 1 who received formula #6. A sample of 52 exclusively breast-fed infants were also selected and matched to the over formula-fed group with regards to mean age, gestation duration, birth weight, male:female ratio, ethnicity ratio, maternal education, family size, and number of languages spoken in the home (in addition to English).
# Each infant was scanned using the mcDESPOT (multicomponent Driven Equilibrium Single Pulse Observation of T1 and T2) white matter imaging technique Deoni et al. (Magn. Reson. Med. 2008, 60:1372-1387), which provides a quantitative measure of the myelin water fraction (MWF)—a measure of myelin content—at each point throughout the brain. All infants were scanned during natural (i.e. non-sedated) sleep using acoustically-muffled mcDESPOT imaging protocols. Total imaging times ranged from 19 minutes for the youngest toddlers to 24 minutes for the older 4 year-old children.
row,Compound,association of nutrient with myelination (myelin water fraction) over time in the brain
1,[P] [phosphorus],association with myelination (myelin water fraction) was observed over time in the brain
2,"CCCCC/C=C\C/C=C\C/C=C\C/C=C\CCCC(=O)O [AA, arachidonic acid]",association with myelination (myelin water fraction) was observed over time in the brain
3,phosphatidylcholine,association with myelination (myelin water fraction) was observed over time in the brain
4,Sphingomyelin,association with myelination (myelin water fraction) was observed over time in the brain
5,[Ca+2] [calcium],association with myelination (myelin water fraction) was observed over time in the brain
6,phosphatidylinositol,association with myelination (myelin water fraction) was observed over time in the brain
7,iron,association with myelination (myelin water fraction) was observed over time in the brain
8,[Zn] [zinc],association with myelination (myelin water fraction) was observed over time in the brain
9,vitamin B12,association with myelination (myelin water fraction) was observed over time in the brain
10,[Mg+2] [magnesium],association with myelination (myelin water fraction) was observed over time in the brain
